Experimental findings from patent publication EP1526135A1, “Azabenzodiazepines as pde4 inhibitors” (Warner-Lambert Company LLC, priority 2003, dated 2005) are described below.

Each structure is given as a SMILES string.

This experiment relates to type 4 phosphodiesterases. In words: Inhibition of type 4 phosphodiesterase enzymatic activity (cytosolic preparation from U937 cells). The experiment is classed as biochemical. Particulars: PDE4 from cytosolic preparation of human cell line U937; inhibitor concentration range 0.1 to 100 µM. As to the method:
The capacity of the compounds of formula (I) of the invention to inhibit cyclic nucleotide phosphodiesterases is evaluated by measuring their IC50 (concentration needed to inhibit 50% of the enzymatic activity). In the case of PDE4 enzymes, this value is compared to the IC50 value for rolipram, a reference inhibitor for PDE4 enzymes.
The type 4 phosphodiesterases are obtained from a cytosolic preparation extracted from a cell line of human origin, U937, according to the method adapted from T. J. Torphy et al., 1992, J. Pharm. Exp. Ther. 263: 1195-1205.
The measurement of the enzymatic activity for the various types of PDE, and in particular the PDE4 enzymes, is carried out according to a method adapted from W. J. Thomson et al. 1979, Advances in Cyclic Nucleotide Research, Vol. 10: 69-92, ed. G. Brooker et al. Raven Press, NY.
For the determination of the IC50 value, the enzymatic activity is measured in the presence of the inhibitor in a concentration range from 0.1 to 100 µM.

For the compound `COc1cc2c3c(n1)C(c1ccccc1)=NC(NC(=O)c1cccnc1)C(=O)N3CC2` (stereo not drawn) [second enantiomer (Rt = 8.15 min) of compound of Example 1, N-(4-Methoxy-9-oxo-6-phenyl-1,2,8,9-tetrahydro-5,7,9a-triaza-benzo[cd]azulen-8-yl)-nicotinamide], half-maximal inhibition (IC50) was put at 73 µM. Regarding `COc1cc2c3c(n1)C(c1ccccc1)=NC(NC(=O)c1cccnc1)C(=O)N3CC2` (stereo not drawn) [first enantiomer (Rt=5.79 min) of compound of Example 1, N-(4-Methoxy-9-oxo-6-phenyl-1,2,8,9-tetrahydro-5,7,9a-triaza-benzo[cd]azulen-8-yl)-nicotinamide], the IC50 (commonly the concentration that inhibits the measured activity by half) amounted to 4.3 µM. Next, `COc1cc2c3c(n1)C(c1ccccc1)=NC(NC(=O)c1cccnc1)C(=O)N3CC2` (racemic) [racemate of compound of Example 1, N-(4-Methoxy-9-oxo-6-phenyl-1,2,8,9-tetrahydro-5,7,9a-triaza-benzo[cd]azulen-8-yl)-nicotinamide]: 6.1 µM.
